Measurements: US20250221936A1, “ENGINEERED HEMICHANNELS, ENGINEERED VESICLES, AND USES THEREOF” (VIRGINIA TECH INTELLECTUAL PROPERTIES, INC., priority 2018, published 2025)
“Also recorded” adds a separate entry of the source.

How the values were obtained:
silicon wafer implants = settings: 24 hours; cited from earlier work
[1] = biological target: T1, PKC-ε phosphorylation of Cx43-CT substrate at Ser368 (Rattus norvegicus, UniProt P08050); test: PKC-ε Cx43 CT S368 phosphorylation assay; type: biochemical; settings: peptides at 20 μM
T1 construct: substrate (Cx43-CT: amino acids 255 to 382); GST (N); made in house; host or cells: E. coli BL21 (Cx43 CT); PKC-ε purchased (Life, 37717L)
T1 sequence (P08050 255-382): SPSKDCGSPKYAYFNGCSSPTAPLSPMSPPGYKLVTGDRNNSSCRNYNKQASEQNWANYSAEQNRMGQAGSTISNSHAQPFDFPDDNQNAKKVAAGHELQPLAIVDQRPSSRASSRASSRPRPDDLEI
Protocol: PKC assay conditions were used to evaluate the PKC-ε phosphorylation of Cx43-CT substrate at Ser368 as we have described previously, with modifications 11. 400 ng/ml […] (Life, 37717L, Carlsbad, CA) was pre-diluted in enzyme dilution buffer (10 mM HEPES pH7.4, 0.01% CHAPS and 5 mM DTT) and assayed in 20 mM HEPES pH7.4, 10 mM/L MgCl2, 0.1 mM EGTA, 1× lipid mix (200 μg/ml phosphatidylserine (Avanti Polar Lipids 840032C),^20 μg/ml Diacylglycerol (Avanti Polar Lipids), 1 mM HEPES pH7.4, 0.03% CHAPS), 500 µM ATP (Sigma, A6419) and 14 μg/ml Cx43-CT substrate. Kinase assay buffer was supplemented with peptides to produce final concentrations of the reaction constituents, as indicated in figure legends. The mixture was incubated at 37° C. for 12 minutes and quenched by addition of LDS sample loading buffer (Bio Rad, 1610791). “XT sample buffer” is what was shown on the product label, whereas the component is similar as regular LDS buffer, containing about 5-10% lithium dodecyl sulphate. The reaction was Western blotted for pS368 Cx43 using the Phospho-Connexin43 (Ser368) antibody from Cell Signaling. Proteins were eluted off by stripping buffer (Millipore 2504) and re-probed for total Cx43 using the Sigma anti-rabbit antibody. Percent phosphorylation (% P) was quantified using Equation 1 and normalized with control group (PKC+, no peptide added).

Cx43 CT = biological target: T2, Cx43 CT (Rattus norvegicus, UniProt P08050); test: Protein thermal shift assay, Cx43 CT; type: binding; settings: 500 μg/ml protein, 25-100 μM peptide
T2 construct: CT: amino acids 255 to 382) alone; GST (N); made in house; host or cells: E. coli BL21
T2 sequence (P08050 255-382): as above
Protocol: (§1) Thermal stability of recombinant GST-PDZ2 or Cx43 CT in the presence or absence of peptides was determined in a 96-well format. Each assay well was composed of 500 μg/ml protein, 25-100 μM of each peptide in PBS buffer, pH7.4. All assays were performed independently six times. Samples were generally prepared in 96-well plates at final volumes of 20 μL. The fluorescent dye SYPRO Orange (5000× concentrate in DMSO, ThermoFisher, S6650) was added to a final concentration of 8X. Reactions were run on QuantStudio 6 Flex Real-Time PCR system (Applied Biosystems, part of Life Technologies Corporation, CA) according to the manufacturer's recommendations using a melt protocol in 0.05-degree/see increments from 25° C. to 95° C. The Reporter Dye was “ROX” and quencher Dye and passive reference were selected as “None” for the melt curve according to manufacturer's instructions. The data were analyzed using Protein Thermal Shift™ Software v1.3 package (Applied Biosystems, CA).

Cx43 CT-KK/QQ = biological target: T3, Cx43 CT-KK/QQ (Rattus norvegicus, UniProt P08050, K345Q/K346Q); test: Surface plasmon resonance, Cx43 CT-KK/QQ analyte; type: binding; settings: biotin-peptide immobilized on streptavidin chip
T3 construct: pGEX-6-P2 Cx43 CT amino acids 255-382; GST (N, cleaved yes); made in house; host or cells: E. coli BL21
T3 sequence (P08050 255-382 K345Q/K346Q): as the sequence (P08050 255-382) above, with K91Q, K92Q counted along it
Excerpt: Peptides were synthesized and quality checked for fidelity and purity using High Performance Liquid Chromatography and mass spectrometry (LifeTein, Hillsborough, NJ). Biotinylated peptides were designed for surface plasmon resonance experiments. Glutathione-S-Transferase (GST) fusion protein constructs composed of the Cx43-CT (pGEX-6-P2 Cx43 CT amino acids 255-382), ZO-1 PDZ1, PDZ2 and PDZ3 were isolated and purified from isopropyl-b-D-thiogalactoside (IPTG)-induced BL21 bacteria using standard procedures, described in references 13, 14, 20. The pGEX6p2-Cx43 CT plasmid was obtained from Prof. Paul L. Sorgen (University of Nebraska Medical Center, USA). Cx43 CT mutant (Cx43 CT-KK/QQ; amino acids Lys345 Lys346 to Gln 345 Gln 346) was developed by site-directed mutagenesis of the pGEX6p2-Cx43 CT plasmid (Agilent technologies, QuikChange II Site-Directed Mutagenesis Kit). The mutation was verified by sequencing. For surface plasmon resonance experiments, the GST was removed using PreScission protease, yielding Cx43 CT protein (wild-type or mutant).
(§2) Efficacy of the interaction of each alpha CT1 variant with Cx43 CT or Cx43 CT-KK/QQ was tested using surface plasmon resonance (SPR) as described previously 20. In brief, SPR experiments were performed using a Biacore T200 (GE Healthcare). Equal amounts (response units/RU) of biotin-alpha CT1 variants were immobilized on each flow cell of a streptavidin-coated sensor chip (Biacore Inc) using immobilization buffer (in mM: 10 HEPES, 1 EDTA, 100 NaCl, 0.005% Tween-20) at pH 7.4. Measurements with wild-type (wt) Cx43 CT and mutant Cx43 CT-KK/QQ analytes were done in running buffer (in mM: 10 HEPES, 100 NaCl, pH 7.4) at a flow rate of 30 μl/min. Binding of analytes were verified at different concentrations, in random order (injection volume 120 μl). Interacting proteins were then unbound by injection of […] regeneration buffer (50 mM NaOH and 1 M NaCl) at a flow rate of 10 μl/min. Background levels were obtained from a reference cell containing a biotin-control peptide in which the reversed sequence of the last 9 amino acids of Cx43 was fused to biotin-antennapedia. The RU values obtained with biotin-control peptide were subtracted from the RU values obtained with the different biotin-alphaCT1 variants (wild-type or mutant) to generate the different response curves.

ZO-1 PDZ2 = biological target: T4, ZO-1 PDZ2 (Homo sapiens, UniProt Q07157); test: Protein thermal shift assay, ZO-1 PDZ2; type: binding; settings: 500 μg/ml protein, 25-100 μM peptide
T4 construct: the second of the three PDZ (PDZ2) domains of ZO-1; made in house; host or cells: E. coli BL21
T4 sequence (Q07157 186-264 limits assumed): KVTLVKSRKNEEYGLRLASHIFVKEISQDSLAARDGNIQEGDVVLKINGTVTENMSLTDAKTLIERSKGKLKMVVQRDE
Protocol: as §1

[2] = biological target: T5, Cx43 CT (amino acids 255 to 382) (Rattus norvegicus, UniProt P08050); test: Surface plasmon resonance, Cx43 CT analyte; type: binding; settings: biotin-peptide immobilized on streptavidin chip; analyte 0.5 to 15 μM
T5 construct: Cx43-CT: amino acids 255 to 382; GST (N, cleaved yes); made in house; host or cells: E. coli BL21
T5 sequence (P08050 255-382): as the sequence (P08050 255-382) above
Protocol: as §2

Cx43-Hela cells = test: Cx43 and ZO-1 immunofluorescent labeling; type: cell-based; settings: 10 μM for 2, 4, 24, or 48 hours
Protocol: Given that the 10UM concentration of peptide was not toxic to cells, the inventors treated Cx43-Hela cells with 10 μM JM1 or JM2 for 2, 4, 24, or 48 hours followed by fixation and immunofluorescent labeling of Cx43 and ZO-1. Said peptides can be loaded into the provided EVs and can elicit results similar to those observed for naked peptide as follows. […] However, the most striking effects were on ZO-1 organization. In control cells ZO-1 localized to cell borders, often at sites of small, finger-like projections between the cells. Cytoplasmic ZO-1 was also notable. In JM-treated cells a strong contrast in the ratio of cell border to cytoplasmic ZO-1 was found, with relative levels at cell borders being increased over controls. […] There was also a noticeable increase in the number of cells per area of field, supporting the earlier observation that JM2 treated cells appeared to proliferate and survive at an increased rate.

Cx43-HeLa = type: cell-based
Protocol: The first tests of JM1 and JM2 were performed and the experiments centered on the basic cell biology of the peptides.

[3] = test system: Neonatal cardiac fibroblasts (NHFs); test: Collagen synthesis by neonatal cardiac fibroblasts, Western blotting; type: cell-based, rat
Excerpt: Isolation and treatment of Neonatal Cardiac Fibroblasts with Cx43 based peptides (peptides used included ACT1, JM1, JM2, Antennapedia [ANT], reverse ACT1 [Rev], poly Arginine [poly r]). Said peptides with and without internalization vectors can be loaded into the provided EVs and can elicit results similar to those observed for naked peptide as follows. Neonatal cardiac fibroblasts (NHFs) were isolated from 3-4 day old rat hearts by collagenase digestion (100 U/mL) and differential attachment as previously described (Borg et ah, 1984). All cells were maintained in Dulbecco's Modified Eagle Medium (DMEM) supplemented with 10% Fetal Bovine Serum and 100 U/mL penicillin G and 100 μg/mL streptomycin and used prior to passage four. For experiments, 40,000 NHFs were plated into the wells of a 24-well tissue culture plate and grown for 24-48 hours. On the day of treatment, media was removed from each well and replaced with fresh media containing 50 μg/mL L-ascorbic acid-2-phosphate; Sigma Chemical Co., St. Louis, MO). The appropriate volume of each peptide (resuspended in sterile, deionized 18 MQ resistivity water) was added to achieve the desired final concentration (30, 90, 180 µM peptide concentrations were tested). Culture plates were incubated overnight in a 37° C. incubator with 5% C02.
Protein Isolation and Examination of Collagen Synthesis by Western Blotting. Conditioned culture media was collected from each well and stored at −20° C. for analysis of soluble collagen. Cellular protein, including insoluble collagen and collagen still within the NHFs, were isolated by adding 100-200 μL, of cell lysis buffer (0.01 M Tris, pH 7.4, 0.001 M Sodium Orthovanadate, 1% sodium dodecylsulfate [SDS]) to each well and incubating 10 minutes at room temperature. Prior to addition, cell lysis buffer was warmed to facilitate solubilization of SDS and 100 u L of Halt protease inhibitor (Pierce Biotechnology, Rockford, IL) was added per 10 mL buffer to be used. After incubation, the well bottoms were scraped and liquid transferred to a microcentrifuge tube for storage at −20° C. Protein concentrations of cell lysates were determined using a Micro BCA assay (Pierce). SDS-PAGE samples were prepared by combining either 10 μg of cell lysate or 30 μL of conditioned media with XT loading buffer (BioRad, Hercules, CA), dithiothreitol and boiled for five minutes. Samples were loaded onto 3-8% Tris-Acetate Criterion X T gels (BioRad, Hercules, CA) and proteins separated at 140V. After electrophoresis, proteins were transferred onto […] nitrocellulose membranes (BioRad) overnight at room temperature (Transfer buffer: 25 mM Tris, 192 mM Glycine, 20% Methanol, 0.01% SDS). The presence of collagen was determined by probing the membranes with a rabbit anti-mouse collagen type I antibody (MD Biosciences) at 1:20,000 dilution in blocking buffer (5% milk in Tris-buffered saline) followed by a goat anti-rabbit IgG horseradish peroxidase conjugated antibody at 1:100,000 (Southern Biotech Associates) and detection with Pierce SuperSignal Femto West detection reagent (Pierce). To assess the activity of JM1 and JM2 peptides with respect to collagen production and their potential in mediating wound healing, cardiac fibroblasts were treated with these two peptides and their effectiveness compared to that for the previous described Cx43 peptide ACT1. NHFs were treated with various concentrations of JM1, JM2, ACT1, and ANT (Antennapedia) peptides, vehicle (water) or left untreated and the production of collagen both in the culture media and cell-associated collagen assessed by western blotting. […] To evaluate the impact of the poly-Arginine (poly-r)N-terminal sequence on JM1 and Jm2 activity, NHF cells were treated with a poly-r peptide.

Nc1ncnc2c1ncn2[C@@H]1O[C@H](COP(=O)(O)OP(=O)(O)OP(=O)(O)O)[C@@H](O)[C@H]1O [ATP]
inflammatory infiltrate (silicon wafer implants): profound increase in inflammatory infiltrate; also recorded: more inflammatory infiltrate than the surgery alone

RQPKIWFPNRRKPWKK RPRPAALEI (RQPKIWFPNRRKPWKKRPRPAALEI) [M2 AALEI]
Cx43 S368 phosphorylation [1]: neither M1 AALAI (SEQ ID NO: 134), M2 AALEI (SEQ ID NO: 135) nor M3 DDLAI (SEQ ID NO: 136) increased Cx43 S368 phosphorylation
Cx43 CT melt temperature (Tm) (Cx43 CT): no propensity to alter Cx43 CT thermal stability
SPR binding to Cx43 CT-KK/QQ (Cx43 CT-KK/QQ): unable mediate interactions
PDZ2 melt temperature (Tm) (ZO-1 PDZ2): did not alter the melt temperature of PDZ2
SPR binding to Cx43 CT [2]: abrogated peptide interaction with Cx43 CT; also recorded: limited ability to bind Cx43 CT

VFFKGVKDRV [JM1]
Cx43 and ZO-1 localization (Cx43-Hela cells): greater cytoplasmic Cx43 was observed; also recorded: ZO-1 cell border labeling was enhanced
tissue reaction zone (silicon wafer implants): substantially narrower tissue reaction zone
toxicity (cell death) (Cx43-HeLa): no obvious toxicity
mature type I collagen in conditioned media ([3]; 180 μM): no mature type I collagen was detected
mature type I collagen in conditioned media ([3]; 30, 90, 180 µM): dose-dependent decrease in the production of mature, type I collagen
collagen produced versus poly-r peptide ([3]; about 90 μM): less than half of that produced by cells treated with the poly-r peptide
mature type I collagen in cell lysate ([3]; versus ACT1 peptide): more profound reduction in the amount of mature type I collagen

apyrase
inflammatory infiltrate (silicon wafer implants): significantly reduced the inflammatory infiltrate
